The values below are quoted from earlier work in US20030162803A1, “Anhydrovinblastine for the treatment of cancer” (priority 1997, published 2003).

For this data set the following is noted: triphasic elimination profile; cited from earlier work.

`CC[C@]1(O)C[C@@H]2CN(CCc3c([nH]c4ccccc34)[C@@](C(=O)OC)(c3cc4c(cc3OC)N(C)[C@H]3[C@@](O)(C(=O)OC)[C@H](OC(C)=O)[C@]5(CC)C=CCN6CC[C@]43[C@@H]65)C2)C1` [Vinblastine]: the initial alpha half-life entry was “less than 5 minutes”.
